Data reported in ChEMBL document CHEMBL1944561, “Discovery and SAR exploration of a novel series of imidazo[4,5-b]pyrazin-2-ones as potent and selective mTOR kinase inhibitors” (Bioorg Med Chem Lett, 2011).

Columns and labels:
[1] = target: Insulin-like growth factor 1 receptor (Homo sapiens) (UniProt P08069); test: Inhibition of IGF1R assessed as activity remaining at 10 uM
[2] = target: Platelet-derived growth factor receptor alpha (Homo sapiens) (UniProt P16234); test: Inhibition of PDGFRalpha assessed as activity remaining at 10 uM
[3] = target: Tyrosine-protein kinase ABL1 (Homo sapiens) (UniProt P00519); test: Inhibition of Abl assessed as activity remaining at 10 uM
[4] = target: Mitogen-activated protein kinase 1 (Homo sapiens) (UniProt P28482); test: Inhibition of MAPK1 assessed as activity remaining at 10 uM
[5] = Inhibition of PKA assessed as activity remaining at 10 uM
[6] = target: Rho-associated protein kinase 1 (Homo sapiens) (UniProt Q13464); test: Inhibition of ROCK1 assessed as activity remaining at 10 uM
[7] = target: Protein kinase C alpha type (Homo sapiens) (UniProt P17252); test: Inhibition of PKC-alpha assessed as activity remaining at 10 uM
[8] = target: Mitogen-activated protein kinase kinase kinase 9 (Homo sapiens) (UniProt P80192); test: Inhibition of MLK1 assessed as activity remaining at 10 uM
[9] = target: Tyrosine-protein kinase Fes/Fps (Homo sapiens) (UniProt P07332); test: Inhibition of Fes assessed as activity remaining at 10 uM
[10] = target: Tyrosine-protein kinase CSK (Homo sapiens) (UniProt P41240); test: Inhibition of CSK assessed as activity remaining at 10 uM
[11] = target: Homeodomain-interacting protein kinase 1 (Homo sapiens) (UniProt Q86Z02); test: Inhibition of HIPK1 assessed as activity remaining at 10 uM
[12] = target: T1, Calcium/calmodulin-dependent protein kinase type IV (Homo sapiens) (UniProt Q16566); test: Inhibition of CaMK4 assessed as activity remaining at 10 uM
T1 sequence (whole entry): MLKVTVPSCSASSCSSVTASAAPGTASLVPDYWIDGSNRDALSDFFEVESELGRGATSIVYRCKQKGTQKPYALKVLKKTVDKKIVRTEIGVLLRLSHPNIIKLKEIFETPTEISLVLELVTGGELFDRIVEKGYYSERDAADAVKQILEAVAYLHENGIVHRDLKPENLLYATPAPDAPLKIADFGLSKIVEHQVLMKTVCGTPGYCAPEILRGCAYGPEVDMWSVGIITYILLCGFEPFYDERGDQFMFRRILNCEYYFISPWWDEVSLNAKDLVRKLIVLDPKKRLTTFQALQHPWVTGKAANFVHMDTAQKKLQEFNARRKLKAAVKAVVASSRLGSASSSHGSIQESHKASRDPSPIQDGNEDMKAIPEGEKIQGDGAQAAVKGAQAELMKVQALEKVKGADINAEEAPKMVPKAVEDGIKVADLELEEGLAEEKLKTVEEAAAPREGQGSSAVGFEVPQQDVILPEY

[13] = target: SRSF protein kinase 3 (Homo sapiens) (UniProt Q9UPE1); test: Inhibition of MSSK1 assessed as activity remaining at 10 uM
[14] = target: Serine/threonine-protein kinase PAK 4 (Homo sapiens) (UniProt O96013); test: Inhibition of PAK4 assessed as activity remaining at 10 uM
[15] = target: Mitogen-activated protein kinase 9 (Homo sapiens) (UniProt P45984); test: Inhibition of JNK2alpha2 assessed as activity remaining at 10 uM
[16] = target: Tyrosine-protein kinase Fyn (Homo sapiens) (UniProt P06241); test: Inhibition of Fyn assessed as activity remaining at 10 uM
[17] = target: T2, Aurora kinase A (Homo sapiens) (UniProt O14965); test: Inhibition of Aurora-A assessed as activity remaining at 10 uM
T2 sequence (whole entry): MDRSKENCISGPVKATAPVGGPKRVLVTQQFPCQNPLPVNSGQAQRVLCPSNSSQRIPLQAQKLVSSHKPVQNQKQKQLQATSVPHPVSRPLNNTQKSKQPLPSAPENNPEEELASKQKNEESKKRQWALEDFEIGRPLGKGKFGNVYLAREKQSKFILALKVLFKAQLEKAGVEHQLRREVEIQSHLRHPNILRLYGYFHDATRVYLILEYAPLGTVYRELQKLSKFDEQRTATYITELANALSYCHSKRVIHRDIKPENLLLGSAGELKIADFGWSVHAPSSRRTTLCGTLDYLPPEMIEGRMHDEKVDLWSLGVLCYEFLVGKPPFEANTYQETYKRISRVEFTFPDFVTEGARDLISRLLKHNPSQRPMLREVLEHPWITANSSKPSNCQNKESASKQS

[18] = target: Insulin receptor-related protein (Homo sapiens) (UniProt P14616); test: Inhibition of IRR assessed as activity remaining at 10 uM
[19] = target: Proto-oncogene tyrosine-protein kinase Src (Homo sapiens) (UniProt P12931); test: Inhibition of cSRC assessed as activity remaining at 10 uM
[20] = target: Glycogen synthase kinase-3 beta (Homo sapiens) (UniProt P49841); test: Inhibition of GSK3-beta assessed as activity remaining at 10 uM
[21] = target: Cyclin-dependent kinase 2 (Homo sapiens) (UniProt P24941); test: Inhibition of CDK2 assessed as activity remaining at 10 uM
[22] = target: Dual specificity mitogen-activated protein kinase kinase 1 (Homo sapiens) (UniProt Q02750); test: Inhibition of MEK1 assessed as activity remaining at 10 uM
[23] = target: T3, Protein kinase C zeta type (Homo sapiens) (UniProt Q05513); test: Inhibition of PKC-zeta assessed as activity remaining at 10 uM
T3 sequence (whole entry): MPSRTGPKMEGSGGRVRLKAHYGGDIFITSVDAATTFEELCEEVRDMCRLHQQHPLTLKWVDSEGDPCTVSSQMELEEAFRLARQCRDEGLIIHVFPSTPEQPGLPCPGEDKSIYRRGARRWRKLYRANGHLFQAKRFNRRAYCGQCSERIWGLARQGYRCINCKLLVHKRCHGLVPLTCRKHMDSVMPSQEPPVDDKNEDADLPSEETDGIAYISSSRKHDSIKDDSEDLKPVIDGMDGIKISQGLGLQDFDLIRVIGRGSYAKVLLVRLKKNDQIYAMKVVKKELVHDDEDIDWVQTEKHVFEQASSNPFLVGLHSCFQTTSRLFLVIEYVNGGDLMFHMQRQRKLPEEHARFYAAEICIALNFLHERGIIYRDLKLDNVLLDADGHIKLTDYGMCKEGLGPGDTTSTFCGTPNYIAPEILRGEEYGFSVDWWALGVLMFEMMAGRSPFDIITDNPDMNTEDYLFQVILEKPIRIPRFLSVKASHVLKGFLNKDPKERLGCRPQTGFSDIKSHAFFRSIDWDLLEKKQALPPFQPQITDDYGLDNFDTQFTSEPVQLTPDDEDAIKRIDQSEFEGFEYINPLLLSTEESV

[24] = target: Phosphatidylinositol 4,5-bisphosphate 3-kinase catalytic subunit alpha isoform (Homo sapiens, UniProt P42336); test: Inhibition of PI3Kalpha

Sequence of Serine/threonine-protein kinase PAK 4 (Homo sapiens) (O96013 whole entry, looked up): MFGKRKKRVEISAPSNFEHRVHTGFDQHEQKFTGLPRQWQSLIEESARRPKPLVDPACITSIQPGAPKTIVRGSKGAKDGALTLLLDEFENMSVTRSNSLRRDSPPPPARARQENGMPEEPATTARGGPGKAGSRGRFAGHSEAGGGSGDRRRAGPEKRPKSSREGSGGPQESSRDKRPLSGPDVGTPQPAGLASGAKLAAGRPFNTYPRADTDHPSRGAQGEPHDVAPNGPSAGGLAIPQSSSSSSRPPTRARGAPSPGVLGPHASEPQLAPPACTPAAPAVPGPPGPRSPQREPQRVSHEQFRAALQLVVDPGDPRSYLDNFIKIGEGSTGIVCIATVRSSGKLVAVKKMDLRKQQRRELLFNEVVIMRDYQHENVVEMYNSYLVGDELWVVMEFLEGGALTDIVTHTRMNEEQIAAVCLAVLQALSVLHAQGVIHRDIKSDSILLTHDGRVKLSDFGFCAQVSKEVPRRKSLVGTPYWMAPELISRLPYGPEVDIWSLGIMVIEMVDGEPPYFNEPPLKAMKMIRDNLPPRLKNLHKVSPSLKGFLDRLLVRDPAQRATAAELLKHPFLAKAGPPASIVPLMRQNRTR
Sequence of Homeodomain-interacting protein kinase 1 (Homo sapiens) (Q86Z02 whole entry, looked up): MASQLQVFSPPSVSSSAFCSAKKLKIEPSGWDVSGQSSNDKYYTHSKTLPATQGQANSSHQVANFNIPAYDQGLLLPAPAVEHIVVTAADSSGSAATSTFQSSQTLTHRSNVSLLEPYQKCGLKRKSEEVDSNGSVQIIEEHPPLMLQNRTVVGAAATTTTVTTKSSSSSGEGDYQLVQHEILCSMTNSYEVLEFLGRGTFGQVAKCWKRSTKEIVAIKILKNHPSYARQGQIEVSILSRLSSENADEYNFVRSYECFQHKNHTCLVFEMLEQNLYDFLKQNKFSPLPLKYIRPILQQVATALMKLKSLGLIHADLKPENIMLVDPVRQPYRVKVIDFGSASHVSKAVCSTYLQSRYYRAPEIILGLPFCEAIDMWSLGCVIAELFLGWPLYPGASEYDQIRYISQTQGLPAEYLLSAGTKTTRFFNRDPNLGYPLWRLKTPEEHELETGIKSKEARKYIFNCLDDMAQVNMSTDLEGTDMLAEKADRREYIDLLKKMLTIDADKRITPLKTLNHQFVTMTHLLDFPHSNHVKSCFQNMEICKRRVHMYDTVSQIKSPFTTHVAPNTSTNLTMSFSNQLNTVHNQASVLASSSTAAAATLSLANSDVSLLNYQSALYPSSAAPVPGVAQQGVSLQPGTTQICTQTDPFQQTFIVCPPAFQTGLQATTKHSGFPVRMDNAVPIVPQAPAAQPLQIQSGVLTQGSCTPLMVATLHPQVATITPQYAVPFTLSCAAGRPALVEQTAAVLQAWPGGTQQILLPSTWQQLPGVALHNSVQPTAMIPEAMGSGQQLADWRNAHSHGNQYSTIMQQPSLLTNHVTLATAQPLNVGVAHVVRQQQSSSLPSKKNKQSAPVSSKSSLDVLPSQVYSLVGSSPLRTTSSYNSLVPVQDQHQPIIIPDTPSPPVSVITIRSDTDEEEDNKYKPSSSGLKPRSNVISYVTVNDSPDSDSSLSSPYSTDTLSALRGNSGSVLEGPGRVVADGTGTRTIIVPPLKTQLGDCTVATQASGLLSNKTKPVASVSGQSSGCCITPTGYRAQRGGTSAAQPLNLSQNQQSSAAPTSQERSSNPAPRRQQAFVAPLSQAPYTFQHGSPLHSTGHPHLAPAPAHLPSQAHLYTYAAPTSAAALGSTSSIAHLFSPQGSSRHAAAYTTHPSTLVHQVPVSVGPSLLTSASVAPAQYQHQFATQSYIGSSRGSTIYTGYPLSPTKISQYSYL
Sequence of Tyrosine-protein kinase Fes/Fps (Homo sapiens) (P07332 whole entry): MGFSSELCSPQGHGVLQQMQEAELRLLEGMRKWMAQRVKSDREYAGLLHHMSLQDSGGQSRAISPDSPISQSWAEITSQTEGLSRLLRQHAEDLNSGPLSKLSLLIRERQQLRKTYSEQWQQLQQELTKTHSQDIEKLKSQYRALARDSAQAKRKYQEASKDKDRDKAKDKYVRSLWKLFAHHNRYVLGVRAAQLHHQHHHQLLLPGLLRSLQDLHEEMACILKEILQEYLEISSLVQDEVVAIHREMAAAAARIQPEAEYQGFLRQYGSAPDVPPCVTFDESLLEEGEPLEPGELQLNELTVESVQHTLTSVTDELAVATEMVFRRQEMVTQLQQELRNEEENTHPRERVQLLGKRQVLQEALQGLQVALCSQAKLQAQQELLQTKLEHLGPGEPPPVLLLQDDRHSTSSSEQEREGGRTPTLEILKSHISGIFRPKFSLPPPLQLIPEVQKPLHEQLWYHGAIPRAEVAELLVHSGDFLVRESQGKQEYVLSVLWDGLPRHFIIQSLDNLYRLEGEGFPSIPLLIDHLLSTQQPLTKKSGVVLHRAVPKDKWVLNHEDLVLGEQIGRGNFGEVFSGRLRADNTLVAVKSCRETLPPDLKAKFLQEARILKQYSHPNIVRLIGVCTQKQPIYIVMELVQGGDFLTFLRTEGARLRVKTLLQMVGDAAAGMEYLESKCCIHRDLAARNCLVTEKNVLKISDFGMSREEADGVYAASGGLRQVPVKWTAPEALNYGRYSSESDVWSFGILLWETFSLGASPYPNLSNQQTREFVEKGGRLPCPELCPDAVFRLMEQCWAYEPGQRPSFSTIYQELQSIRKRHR
Sequence of Tyrosine-protein kinase CSK (Homo sapiens) (P41240 2-450 limits assumed): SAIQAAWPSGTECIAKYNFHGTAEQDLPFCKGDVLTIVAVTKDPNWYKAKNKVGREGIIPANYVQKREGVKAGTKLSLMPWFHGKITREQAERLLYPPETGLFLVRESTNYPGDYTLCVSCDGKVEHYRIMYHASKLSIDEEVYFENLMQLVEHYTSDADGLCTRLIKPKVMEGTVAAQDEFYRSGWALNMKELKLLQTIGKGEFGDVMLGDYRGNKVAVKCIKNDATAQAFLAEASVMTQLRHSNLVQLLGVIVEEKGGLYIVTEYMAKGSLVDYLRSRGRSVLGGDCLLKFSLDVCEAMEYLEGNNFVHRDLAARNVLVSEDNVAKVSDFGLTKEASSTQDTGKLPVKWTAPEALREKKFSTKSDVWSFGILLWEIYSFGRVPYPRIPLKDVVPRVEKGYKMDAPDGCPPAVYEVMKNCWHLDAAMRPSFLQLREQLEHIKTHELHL
Sequence of Rho-associated protein kinase 1 (Homo sapiens) (Q13464 2-1354 limits assumed): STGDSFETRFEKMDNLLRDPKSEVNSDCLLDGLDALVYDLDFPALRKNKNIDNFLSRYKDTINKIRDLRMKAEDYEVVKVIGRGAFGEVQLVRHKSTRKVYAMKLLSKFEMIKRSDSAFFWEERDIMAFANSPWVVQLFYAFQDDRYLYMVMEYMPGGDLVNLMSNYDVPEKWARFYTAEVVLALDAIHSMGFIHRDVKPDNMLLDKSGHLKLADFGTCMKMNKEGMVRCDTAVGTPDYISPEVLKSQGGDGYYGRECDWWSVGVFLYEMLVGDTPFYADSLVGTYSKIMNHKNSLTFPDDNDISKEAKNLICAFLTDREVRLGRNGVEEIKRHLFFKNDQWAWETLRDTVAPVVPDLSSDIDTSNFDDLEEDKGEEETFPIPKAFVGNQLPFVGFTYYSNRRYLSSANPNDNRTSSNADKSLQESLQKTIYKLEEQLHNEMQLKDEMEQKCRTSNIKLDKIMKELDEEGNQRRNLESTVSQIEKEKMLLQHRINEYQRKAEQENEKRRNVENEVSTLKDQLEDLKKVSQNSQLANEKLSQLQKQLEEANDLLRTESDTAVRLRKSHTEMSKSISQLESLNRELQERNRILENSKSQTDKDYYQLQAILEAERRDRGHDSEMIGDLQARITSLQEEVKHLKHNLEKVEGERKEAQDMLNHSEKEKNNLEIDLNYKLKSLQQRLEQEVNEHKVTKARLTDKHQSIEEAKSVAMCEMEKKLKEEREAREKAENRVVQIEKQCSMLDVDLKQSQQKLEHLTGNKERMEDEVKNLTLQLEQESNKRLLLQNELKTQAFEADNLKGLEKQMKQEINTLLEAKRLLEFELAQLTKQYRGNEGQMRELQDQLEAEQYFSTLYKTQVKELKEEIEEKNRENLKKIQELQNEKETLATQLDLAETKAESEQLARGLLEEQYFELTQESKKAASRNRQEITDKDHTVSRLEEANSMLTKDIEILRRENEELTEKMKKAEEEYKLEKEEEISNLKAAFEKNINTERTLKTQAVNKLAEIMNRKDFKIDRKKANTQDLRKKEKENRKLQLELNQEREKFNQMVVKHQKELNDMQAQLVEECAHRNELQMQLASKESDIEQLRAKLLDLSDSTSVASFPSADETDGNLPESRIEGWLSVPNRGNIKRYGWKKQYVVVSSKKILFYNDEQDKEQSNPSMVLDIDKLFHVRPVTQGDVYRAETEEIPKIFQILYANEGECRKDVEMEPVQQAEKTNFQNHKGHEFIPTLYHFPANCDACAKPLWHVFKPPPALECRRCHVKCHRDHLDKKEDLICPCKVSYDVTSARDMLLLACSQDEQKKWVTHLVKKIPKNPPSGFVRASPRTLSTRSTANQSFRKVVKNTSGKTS

Activity [1] [%]	Activity [2] [%]	Activity [3] [%]	Activity [4] [%]	Activity [5] [%]	Activity [6] [%]	Activity [7] [%]	Activity [8] [%]	Activity [9] [%]	Activity [10] [%]	Activity [11] [%]	Activity [12] [%]	Activity [13] [%]	Activity [14] [%]	Activity [15] [%]	Activity [16] [%]	Activity [17] [%]	Activity [18] [%]	Activity [19] [%]	Activity [20] [%]	SMILES	further results
91	93	53	95	95	97	83	80	81	86	94	99	89	87	110	73	58	89	73	31	CC(C)(O)c1ccc(-c2cnc3[nH]c(=O)n(CC4CCCCC4)c3n2)cc1	Activity [21]: 81%; Activity [22]: 82%; Activity [23]: 91%; IC50 [24]: 21.9 µM
95	94	83	86	95	96	86	86	89	96	91	103	93	87	79	102	79	90	92	70	O=c1[nH]c2ncc(-c3ccc(-c4nc[nH]n4)cc3)nc2n1CC1CCOCC1	Activity [21]: 90%; Activity [22]: 84%; Activity [23]: 94%; IC50 [24]: 2.6 µM
96	85	23	110	90	96	82	49	88	90	84	101	91	81	85	67	32	92	63	10	O=c1[nH]c2ncc(-c3ccc4[nH]cnc4c3)nc2n1CC1CCCCC1	Activity [21]: 81%; Activity [22]: 79%; Activity [23]: 75%; IC50 [24]: 20.1 µM
